Values joined by “and” are separate entries in the source; they are usually repeats but may differ in a detail not shown here. Identical values can stand only once.
Key:
[1] = target: T1, Aβ 1-42 (Homo sapiens, UniProt P05067); assay: Assay 1 Fluorometric H2O2 assay (peroxide); assay type: biochemical; settings: inhibition of H2O2 generation by Aβ with copper
T1 construct: The reaction solutions contained Aβ 1-42 at concentrations
Method: Assay 1. Fluorometric H2O2 Assay
A fluorometric assay was used to test the ability of a test compound to inhibit hydrogen peroxide generation by Aβ in the presence of copper based on dichlorofluoroscein diacetate (DCF; Molecular Probes, Eugene Oreg.). The DCF solution (5 mM) in 100% dimethyl sulphoxide (previously purged with argon for 1 hr at 20° C.) was deacetylated in the presence of 0.025M NaOH for 30 min and neutralised at pH 7.4 to a final concentration of 1 mM. Horseradish peroxidase (HRP) stock solution was prepared to 1 μM at pH 7.4. The reactions were carried out in PBS, pH 7.4 in a 96 well plate (total volume=250 μl/well). The reaction solutions contained Aβ 1-42 at concentrations in the range of 50 nM to 1 μM, copper-glycine chelate (Cu-Gly), was prepared by adding CuCl2 to glycine in the ratio of 1:6 and added to the Aβ in the proportion 2Cu-Gly:1Aβ), reducing agents including dopamine (5 μM) or ascorbic acid, deacetylated DCF 100 μM, and HRP, 0.1 μM. 1-10 μM EDTA or another chelator may also be present as a control for free copper, but was not required for the assay to function. The reaction mixture was incubated at 37 C for 60 min. Catalase (4000 units/ml) and H2O2 (1-2.5 μM) standards in PBS pH 7.4 may be included as positive controls. Fluorescence was recorded using a plate reader with excitation and emission filters at […] respectively. H2O2 concentration may be established by comparing fluorescence with the H2O2 standards. Inhibition of Aβ H2O2 production was assayed by including a given concentration of test compound(s) in the test wells.

[2] = Assay 16 mouse plasma levels of test compounds; assay type: in vivo; settings: for Conc. in mouse plasma: listed as PB 1076, 30 mg/kg
Method: Assay 16. Determination of Mouse Plasma Levels of Test Compounds PB 1075
(§1) Oral administration of PB 1075 at 30 mg/kg, as a suspension in Na-Carboxymethyl Cellulose (CMC) was administered by oral gavage to four mice. Two mice were sacrificed 30 minutes after administration and two mice were sacrificed 60 minutes after administration. Blood was obtained by cardiac puncture and plasma separated by centrifugation.
The concentration of PB 1075 was determined by LC/MS using the triple quadrupole instrument. The mobile phase consisted of an acetonitrile (ACN)/water gradient (containing 0.05% Formic acid) and the column was a Phenomenex Lunea 5 um C8 (50×2 mm) column.
The supplied acute toxicity mouse plasma samples were directly injected following a protein precipitation with ACN. The analytical method in plasma was linear in the range of 10 to 10,000 ng/ml (R^2=0.994). Recovery of PB 1075 from plasma was ˜100%.
as §1, with “1076” for “1075”
The concentration of PB 1076 was determined by LC/MS using the triple quadrupole instrument. The mobile phase consisted of an acetonitrile (ACN)/water gradient (containing 0.05% Formic acid) and the column was a Phenomenex Luna 5 μM C8 (50×2 mm) column.
The mouse plasma samples were directly injected following a protein precipitation with ACN. The analytical method in plasma was linear in the range of 500 to 10,000 ng/ml (R^2=0.999). Recovery of PB 1076 from plasma was ˜85%.
as §1, with “1077” for “1075”
The concentration of PB 1077 was determined by LC/MS using the triple quadrupole instrument. The mobile phase consisted of an acetonitrile (ACN)/water gradient (containing 0.05% Formic acid) and the column was a Phenomenex Luna 5 μM C8 (50×2 mm) column.
The mouse plasma samples were directly injected following a protein precipitation with ACN. The analytical method in plasma was linear in the range of 5 to 5,000 ng/ml (R^2=0.999). Recovery of PB 1077 from plasma was ˜92%.

[3] = system: soluble and insoluble Aβ in the brain; assay: Assay 11 effect on Aβ deposits in transgenic animals (soluble and insoluble Aβ, Western blot); assay type: in vivo, APP2576 transgenic mouse; settings: APP2576 mice
[4] = system: Aβ plaques; assay: Assay 14 transgenic mouse brain immunohistochemistry (plaque score); assay type: in vivo; settings: APP2576 mice
Excerpt: Assay 14. Transgenic Mouse Brain Immunohistochemistry
The APP2576 transgenic mouse (Hsiao et al., 1996) as referred to in Assay 11 is utilized in this assay. The contralateral formalin-fixed mouse brain tissue is coronally cut. Sections (10 μm) are taken from the corresponding sites and treated with 80% formic acid for antigen retrieval. The primary antibody used is monoclonal antibody 1E8, which recognizes epitopes between residues 18 and 22 of Aβ (SmithKline Beecham, UK). Immunoreactivity is developed with secondary antibody linked to horseradish peroxidase (using a 3,39-diaminobenzidinechromagen) (Dako) and alkaline phosphatase (using 5-bromo-4-chloro 3-indoxyl phosphate and nitroblue tetrazolium chloride chromagen) (Dako). Plaque abundance per section is assessed by two operators blinded to treatment according to the following scale:
1=plaques present but very sparse
2=several plaques present
3=numerous plaques visible in restricted areas
4=plaques abundant and not restricted to any particular area.
Intermediate values eg 2.5 are assigned where applicable. Students ‘t’ test is used for comparisons between groups.

[5] = Assay 3(d) test compound cytotoxicity (MTS); assay type: cell-based; settings: BL6Jx129sv, mouse, primary cortical neuronal cultures, cortical neurons; for viability at 4 days, 1 µM: read-out: Assay 3(d) Cytotoxicity (% viable at 1 uM); for viability at 4 days, 10 µM: read-out: Assay 3(d) Cytotoxicity (% viable at 10 uM)
Method: Primary Cortical Neuronal Cultures
Cortical cultures were prepared as previously described (White et al., 1998). Embryonic day 14 BL6Jx129sv mouse cortices were removed, dissected free of meninges and dissociated in 0.025% (wt/vol) trypsin. Dissociated cells were plated in 48 well culture plates at a density of 2×10^6 cells/mL in MEM with 25% (vol/vol) FCS and 5% (vol/vol) HS and incubated at 37° C., 2 hrs. Media was then replaced with Neurobasal media (Invitrogen Life Technologies) and B27 supplements (Invitrogen Life Technologies). Cultures were maintained at 37° C. in 5% CO2. Prior to experimentation, the culture medium was replaced with Neurobasal media and B27 minus antioxidants (Invitrogen Life Technologies).
(a) MTS Assay for Cell Viability
Cell viability is determined using the MTS assay. Culture medium is replaced with fresh neurobasal medium plus B27 supplements minus antioxidants. 1/10 volume MTS solution (Cell Titre 96 Aqueous One, Promega Corporation) and incubated at 37° C., 2 hrs. 200 microlitre aliquots are measured with a spectrophotometer at 560 nm.
(d) Assay for Test Compound Cytoxicity
Neuronal cortical cells were cultured for five days as per Assay 2 in NB media and B27 supplement.
On day six the test compounds were added to the neuronal cell cultures in NB media and B27 supplement minus antioxidants.
Test compounds were dissolved in 100% DMSO to a concentration of 2.5 mM (10 mM if excess compound was weighed out per vial—then diluted to 2.5 mM). 2.5 mM stock solution was serially diluted 1 in 10 to give working solutions of 250 uM, 25 uM, 2.5 uM. Test compounds were not added directly to cells, instead they were added to a 48 well ‘Drug Plate’ as comprised below:
Preparation of “Drug Plate”:
• Well 1: 576 ul NB+B27 (no antioxidant)*+24 ul 2.5 uM test compound • Well 2: 576 ul NB+B27 (no antioxidant)+24 ul 25 uM test compound • Well 3: 576 ul NB+B27 (no antioxidant)+24 ul 250 uM test compound • Well 4: 576 ul NB+B27 (no antioxidant)+24 ul 2.5 uM test compound • Well 5: 576 ul NB+B27 (no antioxidant)+24 ul 25 uM test compound • Well 6: 576 ul NB+B27 (no antioxidant)+24 ul 250 uM test compound • Well 7: 576 ul NB+B27 (no antioxidant)+24 ul test compound diluent** • Well 8: 600 ul NB+B27 (no antioxidant)
The Drug Plate was incubated at 37° C. for 15 mins. 200 ul of each well was added in triplicate to the corresponding cell plate. The cell plate was incubated at 37° C., for 4 days, (2 compounds are tested on each plate of cells).
* NB media and B27 (no antioxidants),
** PBT diluent 10% DMSO in NB+B27 (no antioxidants)
On completion of the assay, 1/10 volume MTS was added per well of plate (ie 25 ul/250 ul). The plates were incubated at 37° C. for 2 hrs, and then absorbance was read at 560 nm.

[6] = target: T2, A-beta 1-42 aggregates formed by precipitation with zinc (Homo sapiens, UniProt P05067); assay: Assay 17 synthetic amyloid plaque disaggregation assay (thioflavin T); assay type: biochemical; settings: for Assay 17 percentage disaggregation at 5 uM: 5 uM (printed as 5/%); for EC50: Aβ1-42/Zn/ThT aggregates, 2 hours, 37 degrees
T2 construct: host or cells: chemically synthesised peptide
T2 sequence (P05067 672-713 limits assumed): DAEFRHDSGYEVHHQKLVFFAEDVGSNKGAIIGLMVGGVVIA
Method: Assay 17. Synthetic Amyloid Plaque Disaggregation Assay
This assay measures the ability of test compounds to dissolve aggregates of synthetic Alzheimer's A-beta 42 residue peptide formed by precipitation with zinc.
The synthetic plaque disaggregation assay is a thioflavin T fluorescence-based assay which measures the ability of a test compound to disaggregate synthetic aggregates generated by the incubation of Alzheimer's amyloid A-beta protein (Aβ) in the presence of zinc.
The 42 residue A-beta which is the form most prevalent in Alzheimer's amyloid plaques is precipitated by the addition of zinc salts to form a beta sheet conformational aggregate physicochemically congruent with the crystalline amyloid plaque cores. […] Solubilisation of the metal bound aggregates by a test compound will result in reduced fluorescence as the beta sheet conformation is lost. The activity of a compound in this assay is a combination of its metal chelating properties, solubility, hydrophobicity and structural elements which influence interaction with the amyloid mass.
The assay models the process by which a test compound is acting, either to compete for bound metals with Aβ or alternatively to displace metals by competitively binding at the metal binding site, resulting in Aβ precipitated by zinc, being solubilised, as an in vitro model of plaque disaggregation.
Aliquots of synthetic Aβ peptide are prepared for convenience. Aβ is dissolved in distilled H2O and peptide concentration is assessed by absorption at 214 nm against a validated standard curve. Abeta/Zn aggregates in the presence of solvent only (DMSO) and control vehicle (PBS) are included in each assay as negative controls. The test compounds were dissolved in DMSO to a concentration of 5 mM. Dilutions were made in DMSO as appropriate to 100 times the desired final concentration and added immediately to the A-beta aggregates.
A-beta 1-42 is incubated with ZnCl2 and Thioflavine T (ThT) in a molar ratio of (1:2:2) for 24 hours at 37 degrees on a rotating wheel in PBS pH 6.6. Following incubation, aggregates are incubated with test drug for a further 2 hours at 37 degrees with rotation. PBS blank, untreated aggregates and DMSO controls are included with each experiment. After 2 hour incubation, samples are measured for ThT fluorescence using an LS55 (Perkin Elmer) fluorimeter in a cuvette.
Data are generated in FL Winlab software (Perkin Elmer) and analysed using GraphPad Prism v4.0 software. Data are calculated as the average of multiple reads.
The two values together provide a measure of the efficiency of disaggregation.

T1 sequence (P05067 672-713 limits assumed): as above

Row | SMILES | IC50 [1] [µM] | Conc. in mouse plasma ([2]; 30 min after oral dosing at 30 mg/kg, single mouse) [ng/mL] | Conc. in mouse plasma ([2]; 60 min after oral dosing at 30 mg/kg, single mouse) | Assay 16 Mice plasma concentration ([2]; highest level found in mice (Up to), oral dosing 30 mg/kg described for PB 1075-1077) | concentration at 30 min ([2]; mouse, plasma, po, 30 mg/kg, 30 min after oral dosing at 30 mg/kg, single mouse, read-out: Conc. in mouse plasma) [ng/mL] | Tg mice Insoluble Fraction: % change compared with vehicle alone control mice ([3]; insoluble Aβ) | Tg mice Soluble Fraction: % change compared with vehicle alone control mice ([3]; soluble Aβ) | Plaques score: average count score per treatment group relative to the vehicle (sham) treated group [4] | viability at 4 days, 1 µM [5] [%] | viability at 4 days, 10 µM [5] [%] | Assay 17 percentage disaggregation at 5 uM [6] | EC50 [6] [µM] | disaggregation (rating in words) [6]
1 | Br.O=c1c2c(Cl)cc(Cl)c(O)c2ncn1CC1CC1 [Compound 1076] | 0.45 | 1593.61 | 1167.52 ng/mL and 2697.62 ng/mL | Up to 2698 ng/mL | 2330 | −21% (insol) | −24% (sol) | −29% (plaque) | – | – | – | – | –
2 | Br.O=c1c2c(Cl)cc(Cl)c(O)c2ncn1Nc1ccc(F)cc1F [Compound 1100] | 0.42 | – | – | – | – | – | – | – | 100 | 92 | 42% | 17 | –
3 | Br.O=c1c2c(Cl)cc(Cl)c(O)c2ncn1Cc1cccc(Cn2cnc3c(O)c(Cl)cc(Cl)c3c2=O)n1 [Compound 1101] | < 4.1 | – | – | – | – | – | – | – | 89 | 17 | 45 5/% | 11.7 | –
4 | CCN(CC)Cc1nc2c(O)c(Cl)cc(Cl)c2c(=O)[nH]1 [Compound 1128] | 0.34 | – | – | – | – | – | – | – | – | – | 41 5/% | 13.2 | very good (A test compound able to achieve an IC50 at less than 20 μM and scoring greater than 40% disaggregation at 5 μM is considered ‘very good’)
5 | O=c1c2c(Cl)ccc(O)c2ncn1CC1CC1 [Compound 1132] | – | – | – | – | – | – | – | – | – | – | 16 5/% | – | –

Reference: US8084459B2, “Substituted quinazolinones for treating neurological conditions” (Prana Biotechnology Ltd, priority 2004, dated 2011)
